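How tested: cells in 96-well plates exposed to compound for 48 hours at five concentrations. Abbreviation: GI50, concentration required for 50% inhibition of growth. TGI: concentration producing complete growth inhibition.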
How the values were obtained:
Test in all cases: inhibition of tumour cell growth, NCI panel, 48 h
RXF 393 renal = system: RXF 393 renal
ACHN renal = system: ACHN renal
NCI-H522 lung = system: NCI-H522 lung
NCI-H23 lung = system: NCI-H23 lung
OVCAR-3 ovarian = system: OVCAR-3 ovarian
SW-620 colon = system: SW-620 colon
A498 renal = system: A498 renal
NCI-H226 lung = system: NCI-H226 lung
786-0 renal = system: 786-0 renal
IGROV1 ovarian = system: IGROV1 ovarian

| SMILES | TGI (RXF 393 renal) [µM] | TGI (ACHN renal) [µM] | TGI (NCI-H522 lung) [µM] | TGI (NCI-H23 lung) [µM] | TGI (OVCAR-3 ovarian) [µM] | TGI (SW-620 colon) [µM] | TGI (A498 renal) [µM] | TGI (NCI-H226 lung) [µM] | TGI (786-0 renal) [µM] | TGI (IGROV1 ovarian) [µM] | GI50 (RXF 393 renal) [µM] | GI50 (ACHN renal) [µM] | GI50 (NCI-H522 lung) [µM] | GI50 (NCI-H23 lung) [µM] | GI50 (OVCAR-3 ovarian) [µM] | GI50 (SW-620 colon) [µM] | GI50 (A498 renal) [µM] | GI50 (NCI-H226 lung) [µM] | GI50 (786-0 renal) [µM] | GI50 (IGROV1 ovarian) [µM] |
| --- | --- | --- | --- | --- | --- | --- | --- | --- | --- | --- | --- | --- | --- | --- | --- | --- | --- | --- | --- | --- |
| NC(=O)NC1=NCCC(=O)N1CCc1c[nH]c2ccccc12 | 48.3 | 65.1 | 52.1 | 43.4 | 47.8 | 57.7 | 46.1 | 39.9 | > 100 | 42.1 |  |  |  |  |  |  |  |  |  |  |
| O=C(/C=C(\O)C(=O)O)/C=C(\O)c1ccc(Cl)cc1 | > 100 | > 100 | > 100 | > 100 | > 100 | > 100 | > 100 | > 100 | > 100 | > 100 |  |  |  |  |  |  |  |  |  |  |
| CC(=O)O/N=C1\C=Cc2c(no[n+]2[O-])C1=O | 28.5 | 30.9 | 32.8 | 35.5 | 30 | 9.04 | 30.3 | > 100 | 33.5 | 30.3 |  |  |  |  |  |  |  |  |  |  |
| O=C(Nc1ccc(Cl)cc1Cl)c1c/c(=N\O)c2ccc(O)cc2o1 | > 100 | > 100 | > 100 | > 100 | > 100 | > 100 | > 100 | > 100 | > 100 | > 100 |  |  |  |  |  |  |  |  |  |  |
| O=C1CCc2cc([N+](=O)[O-])ccc2O1 | > 100 | > 100 | > 100 | > 100 | > 100 | > 100 | > 100 | > 100 | > 100 | > 100 |  |  |  |  |  |  |  |  |  |  |
| O=C(O)C(=O)/C=C\c1ccc(Cl)cc1 | > 100 | > 100 | > 100 | > 100 | > 100 | 27 | > 100 | > 100 | > 100 | > 100 |  |  |  |  |  |  |  |  |  |  |
| c1ccc2c(c1)N=c1ccccc1=P21c2ccccc2Nc2ccccc21 | 1.89 | 10.9 | 0.913 | 5.34 | 1.57 | 13 | 5.56 | 3.65 | 11.7 | 10.6 |  |  |  |  |  |  |  |  |  |  |
| O=C(O)/C=C/C(=O)Nc1cccc2c1-c1ccccc1C2=O | > 55 | > 100 | 26.3 | > 100 | 5.78 | > 100 | > 100 | > 100 | > 100 | > 100 |  |  |  |  |  |  |  |  |  |  |
| CN1CCN(c2nc(NCCNc3ccnc4cc(Cl)ccc34)c3ccccc3n2)CC1 | 3.46 | 8.27 | 3.8 | 15.2 | 7.44 | 13.3 | 25.5 | 28.7 | 10 | 7.94 | 1.46 | 2.85 | 1.64 | 3.64 | 2.21 | 0.391 | 12.3 | 10.6 | 2.33 | 2.51 |
| COc1cc2c(cc1OC)[C@@H]1[C@H](C2=O)c2ccc([N+](=O)[O-])cc2C(=O)N1CCCBr | 2.22 |  | 29.4 | 1.8 | 0.748 | > 100 | 2.14 | 1.24 | 0.285 | 1.93 | 0.285 |  | 0.574 | < 0.01 |  | 0.213 | 0.666 | 0.281 | < 0.0489 | < 0.01 |
| COC(=O)C1=C(O)C(C(=O)OC)[C@@]2(O)[C@@H](C(=O)OC)C(c3ccc(OC(=O)C(Cc4ccccc4)NC(C)=O)cc3)C[C@@H]1[C@@H]2C(=O)OC (stereo not given in full) | 51.2 |  | > 100 | 48.1 |  | > 100 | 62.9 | 75.1 | 43.5 | > 100 | 25.4 |  | 28.3 | 19.9 |  | 29.7 | 24.5 | 25.5 | 18.3 | 45.7 |
| CC(=O)OCC1OC(n2c(-c3ccc(N)cc3)cc(-c3ccco3)c(C#N)c2=O)C(OC(C)=O)C(OC(C)=O)C1OC(C)=O (stereo not given) | > 50 | > 50 | > 50 | > 50 | > 50 | > 50 | > 50 |  | > 50 | > 50 |  |  |  |  |  |  |  |  |  |  |
| NNC(=S)N/N=C(\c1nc2ccc(Cl)cc2[nH]c1=O)C(O)c1ccc(Cl)cc1Cl (stereo not given) | > 100 | > 100 | > 100 | > 100 |  | > 100 | > 100 | > 100 | > 100 | > 100 |  |  |  |  |  |  |  |  |  |  |
| COc1cc2c3c(c1OC)C1(C=CC(=O)C=C1)CC3N(C(=O)OC(C)(C)C(Cl)(Cl)Cl)CC2 (stereo not given) | 18.5 |  | 23.2 | 32.4 | 20.7 | 43.1 | 31.9 | 33.1 | 28.8 | 41.9 |  |  |  |  |  |  |  |  |  |  |
| C=CC[n+]1c(/C=C2\Sc3ccccc3N2C)sc(-c2ccccc2)c1-c1ccccc1 | 8.94 | 10.2 | 0.76 | 10.9 |  | 13.3 | 2.32 | 0.977 | 11.1 | 13.7 | 0.519 | 1.7 | 0.22 | 0.289 |  | 0.366 | 0.264 | 0.258 | 0.419 | 0.45 |
| O=C(CCCCCn1c2ccccc2c2c3c(c4c5ccccc5[nH]c4c21)C(=O)N(O)C3=O)N1CCOCC1 | 3.37 |  | 3.14 | 5.47 |  | 6.02 | 2.7 | 6.51 | 4.91 | 4.92 | 1.81 |  | 1.38 | 2.11 |  | 2.12 | 1.29 | 2.58 | 1.99 | 2.16 |
| Nc1nc(Cl)cc2c1ncn2C1OC(CO)C(O)C1O (stereo not given) | > 100 | > 100 | > 100 | > 100 | > 100 | > 100 | > 100 |  | > 100 | > 100 | > 100 | > 100 | > 100 | > 100 | > 100 | > 100 | > 100 |  | > 100 | > 100 |
| COc1ncn(C2C=C(CO)C(O)C2O)c(=O)n1 (stereo not given) | > 100 | > 100 | > 100 |  | > 100 |  | > 100 | > 100 | > 100 | > 100 |  |  |  |  |  |  |  |  |  |  |

From PubChem BioAssay (NCI)
